Marks after values point to notes of the source that are not given here.
What was measured:
[1] = tested on: SK-LMS-1; test: Proliferation panel assay, Sarcoma SK-LMS-1; type: cell-based; settings: Homo sapiens, read-out: Cellular Proliferation EC50
[2] = tested on: EJ-1; test: Proliferation panel assay, Bladder EJ-1; type: cell-based; settings: EJ1, read-out: Cellular Proliferation EC50
[3] = tested on: A-375; test: Proliferation panel assay, Melanoma A-375; type: cell-based; settings: Homo sapiens, read-out: Cellular Proliferation EC50
[4] = biological target: human BRD4 first bromodomain (BDI_K57-E168) (Homo sapiens (Human), UniProt O60885); test: TR-FRET bromodomain binding assay, BRD4 first bromodomain
[5] = tested on: H1299; test: Proliferation panel assay, NSCLC H1299; type: cell-based; settings: Homo sapiens, NCI-H1299, read-out: Cellular Proliferation EC50
[6] = tested on: H460; test: Proliferation panel assay, NSCLC H460; type: cell-based; settings: Homo sapiens, NCI-H460, read-out: Cellular Proliferation EC50
[7] = tested on: OPM2; test: Proliferation panel assay, Multiple Myeloma OPM2; type: cell-based; settings: Homo sapiens, OPM-2, read-out: Cellular Proliferation EC50
[8] = tested on: MX-1 human breast cancer xenograft tumors; test: Xenograft tumor growth inhibition assay, MX-1; type: in vivo, mouse; settings: MX-1, PO, BID (5 on, 3 off)x2, vehicle F
[9] = tested on: Raji; test: Proliferation panel assay, AML Raji; type: cell-based; settings: Homo sapiens, Burkitt lymphoma, read-out: Cellular Proliferation EC50
[10] = tested on: HPAC; test: Proliferation panel assay, Pancreas HPAC; type: cell-based; settings: Homo sapiens, read-out: Cellular Proliferation EC50
[11] = tested on: MDAMB231; test: Proliferation panel assay, Breast MDAMB231; type: cell-based; settings: Homo sapiens, MDA-MB-231, read-out: Cellular Proliferation EC50
[12] = biological target: human BRD4 second bromodomain (BDII_E352-M457) (Homo sapiens (Human), UniProt O60885); test: TR-FRET bromodomain binding assay, BRD4 second bromodomain
[13] = tested on: SKM1; test: Proliferation panel assay, AML SKM1; type: cell-based; settings: Homo sapiens, SKM-1, read-out: Cellular Proliferation EC50
[14] = Human liver microsome stability assay; type: in vitro ADME; settings: both sexes, human, microsomes, pH 7.4
[15] = tested on: D54MG; test: Proliferation panel assay, Glioblastoma D54MG; type: cell-based; settings: read-out: Cellular Proliferation EC50
[16] = Rat liver microsome stability assay; type: in vitro ADME; settings: rat liver microsomes (male Sprague-Dawley), 0.5 μM test compound, 0.25 mg/mL microsomal protein, pH 7.4, 37° C.; read-out: Stability in rat liver microsomes (t1/2 in minutes)
[17] = tested on: GEO; test: Proliferation panel assay, Colon GEO; type: cell-based; settings: read-out: Cellular Proliferation EC50
[18] = tested on: Ramos human cancer cell xenograft; test: Xenograft efficacy study, Ramos; type: in vivo, mouse; settings: 3.125 mg/kg/day, PO, BID (5 d on, 3 d off)x2, vehicle F
[19] = tested on: LPS induced IL-6 production; test: LPS (lipopolysaccharide) induced IL-6 production mouse assay; type: in vivo; settings: Mus musculus, read-out: Inhibition of LPS induced IL-6 production in Mice, % inhibition at 3 mg/kg; 3 mg/kg oral, 1 h before LPS; serum IL-6 2 h after LPS
[20] = tested on: breast cancer cell line MX-1; test: MX-1 cell line proliferation assay; type: cell-based, human; settings: Homo sapiens, MX1, 72 h; MX-1 cells, 3-day proliferation, Cell Titer Glo; read-out: Cellular proliferation: EC50
[21] = tested on: NCI-H929; test: Proliferation panel assay, Multiple Myeloma NCI-H929; type: cell-based; settings: Homo sapiens, read-out: Cellular Proliferation EC50
[22] = tested on: PC3M; test: Proliferation panel assay, Prostate PC3M; type: cell-based; settings: Homo sapiens, PC-3M, read-out: Cellular Proliferation EC50
[23] = Mouse liver microsome stability assay; type: in vitro ADME; settings: male, CD1, mouse, microsomes, pH 7.4
[24] = tested on: 786-0; test: Proliferation panel assay, RCC 786-0; type: cell-based; settings: Homo sapiens, read-out: Cellular Proliferation EC50
[25] = tested on: HepG2; test: Proliferation panel assay, Hepatocellular HepG2; type: cell-based; settings: Homo sapiens, read-out: Cellular Proliferation EC50
[26] = tested on: Ramos; test: Proliferation panel assay, NHL Ramos; type: cell-based; settings: Homo sapiens, read-out: Cellular Proliferation EC50
[27] = tested on: H1975; test: Proliferation panel assay, NSCLC H1975; type: cell-based; settings: Homo sapiens, NCI-H1975, read-out: Cellular Proliferation EC50
[28] = tested on: DLD-1; test: Proliferation panel assay, Colon DLD-1; type: cell-based; settings: Homo sapiens, read-out: Cellular Proliferation EC50
[29] = tested on: Ly18; test: Proliferation panel assay, NHL Ly18; type: cell-based; settings: read-out: Cellular Proliferation EC50
[30] = tested on: MDAMB453; test: Proliferation panel assay, Breast MDAMB453; type: cell-based; settings: Homo sapiens, MDA-MB-453, read-out: Cellular Proliferation EC50
[31] = tested on: BxPC3FP5; test: Proliferation panel assay, Pancreas BxPC3FP5; type: cell-based; settings: read-out: Cellular Proliferation EC50
[32] = tested on: FaDu; test: Proliferation panel assay, Head & Neck FaDu; type: cell-based; settings: Homo sapiens, read-out: Cellular Proliferation EC50
[33] = tested on: RPMI-8226; test: Proliferation panel assay, Multiple Myeloma RPMI-8226; type: cell-based; settings: Homo sapiens, read-out: Cellular Proliferation EC50

## Cn1cc(-c2cc(NS(C)(=O)=O)ccc2Oc2ccccc2)c2cc[nH]c2c1=O [Example 4, N-[3-(6-methyl-7-oxo-6,7-dihydro-1H-pyrrolo[2,3-c]pyridin-4-yl)-4-phenoxyphenyl]methanesulfonamide]
[1]
  EC50: 25 nM
[2]
  EC50: 202 nM
[3]
  EC50: 20 nM
[4]
  Ki: 1.4 nM
[5]
  EC50: 60 nM
[6]
  EC50: 3770 nM
[7]
  EC50: 1 nM
[8]; 12.5 mg/kg/day
  % TGD (tumor growth delay): 70*** %
  % TGI (tumor growth inhibition): 73*** %
  % removed from study: 10%
[8]; 25 mg/kg/day
  % TGD (tumor growth delay): 81*** %
  % TGI (tumor growth inhibition): 77*** %
  % removed from study: 30%
[9]
  EC50: 6 nM
[10]
  EC50: 50 nM
[11]
  EC50: 220 nM
[12]
  Ki: 2 nM
[13]
  EC50: 5 nM
[14]
  half-life at 0.5 μM: 59 min
[15]
  EC50: 38 nM
[16]
  half-life at 0.5 μM: 4 min
[17]
  EC50: 80 nM
[18]
  % TGD (tumor growth delay): 27* %
  % TGI (tumor growth inhibition): 19%
  % removed from study: 0%
[19]
  inhibition in vivo at 3 mg/kg: 69%
[20]
  EC50: 16.4 nM
[21]
  EC50: 3 nM
[22]
  EC50: 70 nM
[23]
  half-life at 0.5 μM: 57 min
[24]
  EC50: 11 nM
[25]
  EC50: 74.6 nM
[26]
  EC50: 20 nM
[27]
  EC50: 20 nM
[28]
  EC50: 200 nM
[29]
  EC50: 20 nM
[30]
  EC50: 20 nM
[31]
  EC50: 10 nM
[32]
  EC50: 20 nM
[33]
  EC50: 11 nM
